The values below are quoted from earlier work in patent US20210023011A1, “METHOD AND SYSTEM FOR PRODUCING HIGH PURITY VANCOMYCIN HYDROCHLORIDE” (ZHEJIANG MEDICINE CO., LTD, priority 2013, published 2021).

For data set [1] the following is noted: lyophilized powder.

Where a name gives a salt, the structure may show the parent alone.

Consider `CN[C@H](CC(C)C)C(=O)N[C@H]1C(=O)N[C@@H](CC(N)=O)C(=O)N[C@H]2C(=O)N[C@H]3C(=O)N[C@H](C(=O)N[C@H](C(=O)O)c4cc(O)cc(O)c4-c4cc3ccc4O)[C@H](O)c3ccc(c(Cl)c3)Oc3cc2cc(c3O[C@@H]2O[C@H](CO)[C@@H](O)[C@H](O)[C@H]2O[C@H]2C[C@](C)(N)[C@H](O)[C@H](C)O2)Oc2ccc(cc2Cl)[C@H]1O` [vancomycin hydrochloride, Vancomycin hydrochloride], for which, in data set [1], the solubility in alcohol result is “slightly soluble” and the solubility in water result is given as “freely soluble”. The “decrease of chromatographic purity” value (lyophilization at low temperature) is given as not below 0.5%. Also, the “decrease of purity level of the solution” value (vacuum drying at 40° C. within 8 hours) is “more than 1.0%”.
